The text below walks through data of ChEMBL document CHEMBL1201862, “PubChem BioAssay data set” (2004).

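In this assay, cells in 96-well plates receive the compound at five concentrations for 48 hours. Endpoints are linearly interpolated between the surrounding concentrations. GI50 is the concentration that inhibits growth by half.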 The source made the active and inactive calls. Rule as the data show it: active = GI50 up to about 1.1 µM and inactive = higher.

Common to all, as to assay: growth of human tumour cells (NCI), 48 h
The subject of test [1] is BT-549.
Test [2] concerns CAKI-1.
Test [3] concerns DU-145.
For test [4], the system named is HOP-92.
Test [5] deals with HT-29.
For test [6], the system named is K562.
The subject of test [7] is KM12.
Test [8] relates to MCF7.
In test [9] the test system is MDA-MB-231.
Test [10] relates to MDA-MB-435.
Test [11] concerns MDA-N.
Test [12] deals with NCI/ADR-RES.
Test [13] deals with PC-3.
In test [14] the test system is RXF 393.
The test system of test [15] is SR.
Test [16] concerns T47D.
Test [17] deals with SK-OV-3.
The test system of test [18] is TK-10.
For test [19], the system named is Hs-578T.

For `COc1cccc(-c2[nH]c3cc4c(cc3c(=O)c2C(=O)O)OCO4)c1`, the GI50 in [1] is 51.3 µM (inactive); in [2], 72.8 µM (inactive); in test [3] it was 38.7 µM (inactive); in test [4] it was 27.5 µM (inactive); in test [5], 34.2 µM (inactive); in test [6] it was 34.5 µM (inactive). Besides, the GI50 in [7] is 36.7 µM (inactive); in test [8], 41 µM (inactive); in test [9] it was 57.5 µM (inactive); in test [10] it was 8.39 µM (inactive); in test [11] it was 9.84 µM (inactive); in test [12] it was 17.8 µM (inactive). Besides, the GI50 in [13] is 57.5 µM (inactive); in [14], 39.2 µM (inactive); in test [15], 8.73 µM (inactive); in test [16], > 100 µM (inactive).
Consider `N#CCC(=O)N/N=C1\C(=O)N(c2ccc(Cl)cc2)C(=O)C(=O)C1c1nc2ccccc2o1` (stereo not drawn), for which the GI50 is > 100 µM (inactive) in test [2]; 91.8 µM (inactive) in test [4]; > 100 µM (inactive) in test [5]; > 100 µM (inactive) in test [7]; > 100 µM (inactive) in test [14]; > 100 µM (inactive) in test [17]. Moreover, the GI50 in test [15] and in [18] was > 100 µM (inactive) throughout.
On to `Cc1cc(O)nc(NN2C(Cl)C(=O)C2c2cccc([N+](=O)[O-])c2)n1` (stereo not drawn), for which the GI50 was 19.3 µM (inactive) in test [4]; 19.6 µM (inactive) in test [5]; 18.3 µM (inactive) in test [6]; 25.9 µM (inactive) in [7]; 10 µM (inactive) in test [14]; 16.9 µM (inactive) in test [15]. Also, in test [18], the GI50 was 38.3 µM (inactive).
Turning to `O=C1OC(c2ccc(O)cc2)(c2ccc(O)cc2)c2ccc(Cl)c3cccc1c23.O=C1OC(c2ccc(O)cc2)(c2ccc(O)cc2)c2cccc3c(Cl)ccc1c23`, the GI50 in [1] was 11.8 µM (inactive); in test [2], 8.51 µM (inactive); in test [3], 75 µM (inactive); in test [4] it was 24.2 µM (inactive); in test [5], 12.2 µM (inactive); in test [19], 12.1 µM (inactive). Besides, the GI50 was 21.2 µM (inactive) in [6]; 8.11 µM (inactive) in test [7]; 13.6 µM (inactive) in [8]; 10.7 µM (inactive) in test [9]; 9.46 µM (inactive) in [10]; 11.8 µM (inactive) in [11]. Moreover, the GI50 in [12] was 11.7 µM (inactive); in [13] it was 3.48 µM (inactive); in test [14], 10.8 µM (inactive); in [17] it was 19.2 µM (inactive); in test [15], 9.04 µM (inactive); in [18], 13.6 µM (inactive).
Consider `O=c1[nH]c2cc(C(F)(F)F)ccc2nc1C(F)(F)F`, for which the GI50 was 44.2 µM (inactive) in test [1]; 30.3 µM (inactive) in test [2]; 33.8 µM (inactive) in test [3]; 16.6 µM (inactive) in test [4]; 36.4 µM (inactive) in test [5]; 50.2 µM (inactive) in [6]. Besides, the GI50 in [7] is 23.7 µM (inactive); in [8] it was 53.6 µM (inactive); in [9], 31.3 µM (inactive); in test [10], 34 µM (inactive); in test [11], 32.7 µM (inactive); in test [12] it was 37.9 µM (inactive). Further, the GI50 in [13] is 37.8 µM (inactive); in [14] it was 20.3 µM (inactive); in test [17], 30.4 µM (inactive); in test [15] it was 55.8 µM (inactive); in test [16] it was 36.6 µM (inactive); in test [18] it was 49.7 µM (inactive).
For the compound `COC(=O)C1CCC(=O)N1C(c1ccc2c(c1)OCO2)c1cc(OC)c(OC)c(OC)c1` (stereo not drawn), the GI50 in test [1], in [2], in test [3], in [4], in test [5] and in [19] was > 100 µM (inactive) throughout. The GI50 in test [6], in [7], in test [8], in [9], in test [10] and in [11] was > 100 µM (inactive) throughout. Also, the GI50 in test [13], in test [17], in [15] and in test [18] was > 100 µM (inactive) in each case.
Turning to `Cc1c2c(n(CCN(C)C)c1C)NN=C(C#N)S2(=O)=O`, the GI50 in test [3], in [5], in [19], in test [6], in [7] and in test [8] was > 100 µM (inactive) throughout. Moreover, the GI50 in test [9], in test [10], in [11], in test [12], in test [13] and in test [17] was > 100 µM (inactive) throughout. Besides, the GI50 in test [16] and in [18] was > 100 µM (inactive) each time.
With `S=C1/C(=N/c2ccccc2)N(c2ccccc2)/C(=N\c2ccccn2)N1c1ccccc1`, the GI50 in [2] was 15.5 µM (inactive); in test [3], 19.8 µM (inactive); in test [4], 13 µM (inactive); in test [5] it was 11 µM (inactive); in test [19] it was 14.9 µM (inactive); in test [6], > 100 µM (inactive). Also, the GI50 is 12.9 µM (inactive) in test [7]; 16.6 µM (inactive) in [9]; 15.2 µM (inactive) in [10]; 6.3 µM (inactive) in [11]; 16.7 µM (inactive) in test [12]; 12.8 µM (inactive) in test [13]. In addition, the GI50 is 10 µM (inactive) in test [14]; 19.9 µM (inactive) in [17]; 7.83 µM (inactive) in test [15]; 15 µM (inactive) in test [16]; 15.5 µM (inactive) in [18].
Take `O=[N+]([O-])/C=C/c1cn(CCCCCCCCn2cc(/C=C/[N+](=O)[O-])c3ccccc32)c2ccccc12`: the GI50 is 0.689 µM (active) in test [2]; > 10 µM (inactive) in test [3]; > 10 µM (inactive) in [4]; > 10 µM (inactive) in test [5]; 6.92 µM (inactive) in [19]; > 10 µM (inactive) in test [6]. Besides, the GI50 in test [7] was > 10 µM (inactive); in test [9], > 10 µM (inactive); in test [10] it was 0.327 µM (active); in test [11], 0.61 µM (active); in [12] it was > 10 µM (inactive); in test [13], > 10 µM (inactive). Moreover, the GI50 in test [14], in test [17], in test [15], in test [16] and in test [18] was > 10 µM (inactive) throughout.
In the case of `CCN(CC)c1ccc2cc(C(=O)Nc3nc(C45CC6CC(CC(C6)C4)C5)cs3)c(=O)oc2c1`, the GI50 in test [1], in [2], in test [3], in [4], in [5] and in test [19] was > 100 µM (inactive) in each case. Besides, the GI50 in test [6], in [7], in [8], in test [9], in [10] and in test [11] was > 100 µM (inactive) throughout. Besides, the GI50 in [12], in test [13], in test [14], in [15] and in [18] was > 100 µM (inactive) throughout.
With `CCOP(=O)(OCC)C(Cc1c[nH]c2ccccc12)C(=O)O` (stereo not drawn), the GI50 in test [2], in [3], in test [4], in test [5], in test [19] and in [6] was > 100 µM (inactive) throughout. The GI50 in [8] was 37.2 µM (inactive); in test [9], > 100 µM (inactive); in test [10], > 100 µM (inactive); in [11], > 100 µM (inactive); in test [12] it was > 100 µM (inactive); in test [13] it was > 100 µM (inactive). In addition, the GI50 in test [17], in [15], in [16] and in test [18] was > 100 µM (inactive) each time.
Take `C[C@]12CC[C@H](O[C@@H]3O[C@H](CO[C@@H]4O[C@H](CO)[C@@H](O)[C@H](O)[C@H]4O)[C@@H](O)[C@H](O)[C@H]3O)C[C@@H]1CC[C@@H]1[C@@H]2CC[C@]2(C)[C@@H](C3=CC(=O)OC3)CC[C@]12O` [UZARIN]: the GI50 in test [1] is 6.71 µM (inactive); in [2], 13.7 µM (inactive); in test [3] it was 13.3 µM (inactive); in [4], 29.4 µM (inactive); in test [5] it was 35.8 µM (inactive); in test [19], 19.5 µM (inactive). The GI50 was 24.2 µM (inactive) in test [6]; 47.8 µM (inactive) in test [7]; > 80.2 µM (inactive) in test [9]; 31.8 µM (inactive) in [10]; 29 µM (inactive) in [11]; 15.4 µM (inactive) in test [12]. Further, the GI50 is 28.2 µM (inactive) in test [13]; 12.5 µM (inactive) in [14]; 35.3 µM (inactive) in [17]; 6.25 µM (inactive) in test [15]; 31.1 µM (inactive) in [16]; 18.8 µM (inactive) in [18].
On to `O=C1/C(=C/c2ccccc2)CN(C(=O)C(Cl)(Cl)Cl)C/C1=C\c1ccccc1`, for which the GI50 in test [5] was 1.23 µM (inactive); in test [6], 0.43 µM (active); in test [7] it was 1.29 µM (inactive); in test [14] it was 1.89 µM (inactive); in test [15] it was 1.85 µM (inactive); in [18] it was 2.57 µM (inactive).
